Measured values reported in patent US10556865B2, “Synergistic herbicidal composition containing certain pyridine or pyrimidine carboxylic acids and certain cereal and rice herbicides” (Dow AgroSciences, LLC, priority 2007, dated 2020).

What was measured:
Type in all cases: in vivo
Cyperus iria L. (CYPIR) = assay: Postemergence herbicidal mixtures for weed control in direct seeded rice (greenhouse, visual % injury)
[1] = system: bird's-eye speedwell (Veronica persica L; VERPE); assay: Postemergence herbicidal activity of mixtures in cereal crops (greenhouse, visual injury); conditions: Veronica persica, post-emergence, read-out: VERPE Ob
Protocol: (§1) The plants were grown for 7-36 days in a greenhouse with an approximate 14 hour photoperiod which was maintained at about 18° C. during the day and 17° C. during the night. Nutrients and water were added on a regular basis and supplemental lighting was provided with overhead metal halide 1000-Watt lamps as necessary. The plants were employed for testing when they reached the second or third true leaf stage.
(§2) Treatments consisted of compound (as listed in Tables 1 through 64) and a second cereal herbicide alone and in combination. […] Control plants were sprayed in the same manner with the solvent blank.
(§3) The treated plants and control plants were placed in a greenhouse as described above and watered by sub-irrigation to prevent wash-off of the test compounds. After 20-22 days, the condition of the test plants as compared with that of the control plants was determined visually and scored on a scale of 0 to 100 percent where 0 corresponds to no injury and 100 corresponds to complete kill.
(§4) The following equation was used to calculate the expected activity of mixtures containing two active ingredients, A and B: Expected=A+B−(A×B/100)

[2] = system: scented mayweed (Matricaria chamomila L; MATCH); assay: as above; conditions: Matricaria, post-emergence, read-out: MATCH Ob
Protocol: as §1, §2, §3, §4

[3] = system: black mustard (Brassica nigra L; BRSNI); assay: as above; conditions: Brassica, post-emergence, 35 g/ha alone; read-out: BRSNI Ob
Protocol: (§5) Seeds of the desired test plant species were planted in Sun Gro MetroMix® 306 planting mixture, which typically has a pH of 6.0 to 6.8 and an organic matter content of about 30 percent, in plastic pots with a surface area of 103.2 square centimeters (cm^2). When required to ensure good germination and healthy plants, a fungicide treatment and/or other chemical or physical treatment was applied. The plants were grown for 7-36 days in a greenhouse with an approximate 14 hour photoperiod which was maintained at about 18° C. during the day and 17° C. during the night. Nutrients and water were added on a regular basis and supplemental lighting was provided with overhead metal halide 1000-Watt lamps as necessary. The plants were employed for testing when they reached the second or third true leaf stage.
Treatments consisted of compound (as listed in Tables 1 through 64) and a second cereal herbicide alone and in combination. Weighed amounts of esters (methyl) or salts (TEA [triethylammonium], K [potassium]) of 4-amino-3-chloro -6-(4-chloro-2-fluoro-3-methoxyphenyl)pyridine-2-carboxylic acid (Compound A) or of 6-amino-5-chloro-2-(4-chloro-2-fluoro-3-methoxyphenyl)pyrimidine-4-carboxylic acid (Compound B), were placed in 25 milliliter (mL) glass vials and dissolved in a volume of 97:3 v/v acetone/DMSO to obtain 4.5 milligrams (mg) active ingredient (ai)/mL stock solutions. […] The concentrated stock solutions were diluted to 1.5 mg ai/mL with the addition of 2 volumes of an aqueous mixture containing acetone, water, isopropyl alcohol, DMSO, Agri-dex crop oil concentrate, and Triton® X-77 surfactant in a 64.7:26.0:6.7:2.0:0.7:0.01 v/v ratio. A dilution solution was prepared by mixing 1 volume of 97:3 v/v acetone/DMSO and 2 volumes of an aqueous mixture containing acetone, water, isopropyl alcohol, DMSO, Agri-dex crop oil concentrate, and Triton® X-77 surfactant in a 64.7:26.0:6.7:2.0:0.7:0.01 v/v ratio. Compound requirements are based upon a 12 mL application volume at a rate of 187 liters per hectare (L/ha). Spray solutions of the second cereal herbicide and experimental compound mixtures were prepared by adding the stock solutions to the appropriate amount of dilution solution to form 12 mL spray solution with active ingredients in two- and three-way combinations. Formulated compounds were applied to the plant material with an overhead Mandel track sprayer equipped with 8002E nozzles calibrated to deliver 187 L/ha over an application area of 0.503 square meters (m^2) at a spray height of 18 inches (43 cm) above average plant canopy. Control plants were sprayed in the same manner with the solvent blank.
as §3
(§6) Colby's equation was used to determine the herbicidal effects expected from the mixtures (Colby, S. R. 1967. Calculation of the synergistic and antagonistic response of herbicide combinations. Weeds 15:20-22.).
as §4

[4] = system: Ipomoea hederacea (L.) JACQ. (IPOHE); assay: Postemergence herbicidal mixtures for weed control in direct seeded rice (greenhouse, visual % injury after 3 weeks)
[5] = system: Cyperus esculentus L. (CYPES); assay: Postemergence herbicidal mixtures for weed control in direct seeded rice (greenhouse, visual % injury)
[6] = system: Echinochloa species (ECHSS); assay: Herbicidal mixtures for weed control in transplanted paddy rice (in-water application, visual % injury after 3 weeks); conditions: ECHCG; 5.25 g/ha alone
Protocol: Weed seeds or nutlets of the desired test plant species were planted in puddled soil (mud) prepared by mixing a non-sterilized mineral soil (28 percent silt, 18 percent clay, and 54 percent sand, with a pH of about 7.3 to 7.8 and an organic matter content of about 1.0 percent) and water at a ratio of 100 kilograms (kg) of soil to 19 L of water. The prepared mud was dispensed in 250 mL aliquots into 480 mL non-perforated plastic pots with a surface area of 91.6 square centimeters leaving a headspace of 3 centimeters in each pot. Rice seeds were planted in Sun Gro MetroMix® 306 planting mixture, which typically has a pH of 6.0 to 6.8 and an organic matter content of about 30 percent, in plastic plug trays. Seedlings at the second or third leaf stage of growth were transplanted into 650 mL of mud contained in 960 mL non-perforated plastic pots with a surface area of 91.6 cm^2 4 days prior to herbicide application. The paddy was created by filling the 3 centimeter headspace of the pots with water. When required to ensure good germination and healthy plants, a fungicide treatment and/or other chemical or physical treatment was applied. The plants were grown for 4-14 days in a greenhouse with an approximate 14 hr photoperiod which was maintained at about 29° C. during the day and 26° C. during the night. Nutrients were added as Osmocote (17:6:10, N:P:K+minor nutrients) at 2 g per cup. Water was added on a regular basis to maintain the paddy flood, and supplemental lighting was provided with overhead metal halide 1000-Watt lamps as necessary. The plants were employed for testing when they reached the second or third true leaf stage.
Treatments consisted of esters or salts of compound A, compound C, or compound D and various herbicidal components alone and in combination. For technical grade compounds, a weighed amount, determined by the highest rate to be tested, was placed in an individual 120 mL glass vial and was dissolved in 20 mL of acetone to obtain concentrated stock solutions. […] The concentrated stock solutions obtained were diluted with 20 mL of an aqueous mixture containing 2.5% Agri-dex crop oil concentrate (v/v). For formulated compounds, a measured amount, determined by the highest rate to be tested, was placed in an individual 120 mL glass vial and was dissolved in 20 mL of 2.5% (v/v) Agri-dex crop oil concentrate to obtain concentrated stock solutions. The concentrated stock solutions obtained were diluted with 20 mL of acetone. Applications were made by injecting an appropriate amount of the stock solution into the aqueous layer of the paddy. Control plants were treated in the same manner with the solvent blank. All treated plant material received the same concentration of acetone and crop oil concentrate.
Forms of compounds A, C, and D were applied on an acid equivalent basis. Other herbicidal components were applied on an active ingredient basis and included acetolactate synthase (ALS)-inhibiting herbicides penoxsulam (triazolopyrimidine chemical class) applied as Grasp SC, […] (sulfonylurea chemical class) applied as Sirius G, and bensulfuron-methyl (sulfonylurea chemical class) applied as Londax; acetyl CoA carboxylase (ACCase) inhibiting herbicides cyhalofop-butyl applied as Clincher G and fenoxaprop-p-ethyl applied as Ricestar HT; auxinic herbicide quinclorac applied as Facet 75 DF; phytoene desaturase inhibiting herbicide norflurazon; and p-hydroxyphenylpyruvate dioxygenase (HPPD) inhibiting herbicide sulcotrione applied as Mikado.
The treated plants and control plants were placed in a greenhouse as described above and water was added as needed to maintain a paddy flood. After 3 weeks the condition of the test plants as compared with that of the untreated plants was determined visually and scored on a scale of 0 to 100 percent where 0 corresponds to no injury and 100 corresponds to complete kill.

[7] = system: windgrass (Apera spica-venti L; APESV); assay: Postemergence herbicidal activity of mixtures in cereal crops (greenhouse, visual injury); conditions: Apera spica-venti, post-emergence, read-out: APESV Ob
Protocol: as §5, with “When required to ensure good germination and healthy plants, a fungicide treatment and/or other chemical or physical treatment was applied.” left out
(§7) Treatments consisted of compound (as listed in Tables 1 through 64) and a second cereal herbicide alone and in combination. […] The concentrated stock solutions were diluted to 1.5 mg ai/mL with the addition of 2 volumes of an aqueous mixture containing acetone, water, isopropyl alcohol, DMSO, Agri-dex crop oil concentrate, and Triton® X-77 surfactant in a 64.7:26.0:6.7:2.0:0.7:0.01 v/v ratio. A dilution solution was prepared by mixing 1 volume of 97:3 v/v acetone/DMSO and 2 volumes of an aqueous mixture containing acetone, water, isopropyl alcohol, DMSO, Agri-dex crop oil concentrate, and Triton® X-77 surfactant in a 64.7:26.0:6.7:2.0:0.7:0.01 v/v ratio. Compound requirements are based upon a 12 mL application volume at a rate of 187 liters per hectare (L/ha). […] Formulated compounds were applied to the plant material with an overhead Mandel track sprayer equipped with 8002E nozzles calibrated to deliver 187 L/ha over an application area of 0.503 square meters (m^2) at a spray height of 18 inches […] above average plant canopy. Control plants were sprayed in the same manner with the solvent blank.
as §3, §6, §4

[8] = system: littleseed Canarygrass (Phalaris minor L; PHAMI); assay: as above
Protocol: as §5, with “When required to ensure good germination and healthy plants, a fungicide treatment and/or other chemical or physical treatment was applied.” left out
as §7, §3, §6, §4

[9] = system: annual ryegrass (Lolium multiflorum L; LOLMG); assay: as above; conditions: 50 g/ha, Table 22
Protocol: as §5, with “When required to ensure good germination and healthy plants, a fungicide treatment and/or other chemical or physical treatment was applied.” left out
as §7, §3, §6, §4

[10] = system: blackgrass (Alopecurus myosuroides L; ALOMY); assay: Postemergence herbicidal activity of mixtures in cereal crops (greenhouse, visual injury 0-100 percent after 20-22 days)
Protocol: as §5, with “When required to ensure good germination and healthy plants, a fungicide treatment and/or other chemical or physical treatment was applied.” left out
as §7, §3, §6, §4

Structure (SMILES): CCOc1c(Cl)ccc(-c2cc(N)c(Cl)c(C(=O)OC)n2)c1F [Compound D Methyl]
- % Injury CYPIR Ob (Cyperus iria L. (CYPIR); alone 8.75 g/ha): 50%
- % Injury CYPIR Ob (Cyperus iria L. (CYPIR); alone 35 g/ha): 80%

Structure (SMILES): CC(Oc1ccc(Cl)cc1Cl)C(=O)O (centres unmarked) [Dichlorprop]
- pest or weed control at 140 g/ha ([1]; 140 g/ha alone): 20%
- pest or weed control at 140 g/ha ([2]; 140 g/ha alone): 10%

Structure (SMILES): COc1c(Cl)ccc(Cl)c1C(=O)O [Dicamba]
- pest or weed control at 35 g/ha [3]: 50%
- pest or weed control at 35 g/ha ([1]; 35 g/ha alone): 10%
- pest or weed control at 35 g/ha ([2]; 35 g/ha alone): 30%

Structure (SMILES): COc1cc(OC)nc(Oc2cccc(Oc3nc(OC)cc(OC)n3)c2C(=O)O)n1 [Bispyribac-sodium]
- % Injury IPOHE Ob ([4]; alone 7 g/ha): 10%
- % Injury IPOHE Ob ([4]; alone 28 g/ha): 60%
- % Injury CYPIR Ob (Cyperus iria L. (CYPIR); alone 7 g/ha): 40%
- % Injury CYPIR Ob (Cyperus iria L. (CYPIR); alone 14 g/ha): 90%
- % Injury CYPIR Ob (Cyperus iria L. (CYPIR); alone 28 g/ha): 95%
- % Injury CYPES Ob ([5]; alone 14 g/ha): 0%
- % Injury CYPES Ob ([5]; alone 28 g/ha): 50%

Structure (SMILES): CCOC(=O)c1cnn(C)c1S(=O)(=O)NC(=O)Nc1nc(OC)cc(OC)n1 [Pyrazosulfuron-ethyl]
- % Injury Ob [6]: 20%

Structure (SMILES): CCON=C(CC)C1=C(O)CC(c2c(C)cc(C)cc2C)CC1=O (centres unmarked) [Tralkoxydim, 2-[1-(ethoxyimino)propyl]-3-hydroxy-5-(2,4,6-trimethylphenyl)-2-cyclohexen-1-one, reference compound]
- pest or weed control at 50 g/ha [7]: 75%
- PHAMI Ob ([8]; 25 g/ha, Table 6): 35%
- PHAMI Ob ([8]; 50 g/ha, Table 6): 45%
- PHAMI Ob ([8]; 50 g/ha, Table 22): 30%
- LOLMG Ob [9]: 50%
- ALOMY Ob ([10]; 25 g/ha, Table 6): 78%
- ALOMY Ob ([10]; 50 g/ha, Table 6): 70%
- ALOMY Ob ([10]; 50 g/ha, Table 22): 70%
